Patent US11766435B2, “N3-substituted iminopyrimidinones as antimalarial agents” (Merck Sharp & Dohme LLC, priority 2016, dated 2023)

What follows are compounds tested on asexual P. falciparum 3D7 parasites (assay: P. falciparum growth inhibition assay measuring LDH activity (Assay 1)). Conditions: 3D7 strain, parasitized red blood cells, 72 h incubation, LDH activity read by absorbance at 650 nm.
Assay type: cell-based
Experimental: A modified version of the assay described in Gamo, F. J., Sanz, L. M., Vidal, J., de Cozar, C., Alvarez, E., Lavandera, J. L., Vanderwall, D. E., Green, D. V., Kumar, V., Hasan, S., Brown, J. R., Peishoff, C. E., Cardon, L. R., Garcia-Bustos, J. F., Nature, 465 (2010) 305-310 (Gamo et al.) was used to assess the activity of compounds against asexual P. falciparum 3D7 parasites. Compounds were pre-dispensed in 384-well plates, RPMI/AlbuMAX growth media was added and P. falciparum inoculated. Plates were incubated for 72 h and then frozen at −80° C. overnight. Lactate dehydrogenase (LDH) activity was quantified with the modified cofactor 3-acetylpyridine adenine dinucleotide (APAD) (Sigma Aldrich) by measuring absorbance of the tetrazolium indicator nitro blue tetrazolium (NBT) (Sigma Aldrich) at 650 nm.
An inoculum of synchronous P. falciparum (3D7 strain) parasitized red blood cells (PRBC) at 0.7% parasitaemia and 2% haematocrit in RPMI-1640, 5% AlbuMAX, 2% D-sucrose, 0.3% glutamine and 150 μM hypoxanthine was used for the assay.
Compound master plates (384-well) were prepared by a 10 pt serial dilution of compounds, from 1 mM to 50.8 nM, in columns 3-12 and 13-22. DMSO was dispensed into columns 1 and 23 of the compound master plate to be used as the positive growth control (100% viability). […] Intermediate compound dilution plates were prepared by dispensing 1 μl from each well of the compound master plate into 11.5 μl of RPMI/AlbuMAX growth media. Duplicate assay plates (384-well) were then prepared by dispensing 0.5 μL of compound from the intermediate dilution plates into 9.5 μl of RPMI/AlbuMAX growth media. The parasite inoculum (30 μL) was dispensed into the assay plates containing compounds using a Multidrop dispenser (Thermo Scientific) such that the final assay volume was 40 μL and final compound concentration was 1 μM-0.05 nM (the volume of compound addition can be adjusted to the preferred and agreed screening concentration). The final DMSO concentration was 0.1% (ideally 0.2% to limit toxicity to parasites), but this is dependent on volume of compound DMSO stock solution that can be supplied. Plates were incubated at 37° C. for 72 h in an atmosphere of 5% CO2, 5% O2, […].
After 72 h of incubation, plates were frozen at −80° C. overnight and then thawed at room temperature for at least 4 h. To evaluate LDH activity, 45 μL of freshly made reaction mix (174 mM sodium L-lactate (Sigma Aldrich), 214 μM 3-acetyl pyridine adenine dinucleotide (APAD) (Sigma Aldrich), 270 μM nitro blue tetrazolium chloride (NBT) (Sigma Aldrich), 4.35 U/mL diaphorase (from Clostridium kluyveri) (Sigma Aldrich), 0.7% Tween 20, 100 mM Tris-HCl pH 7.5) was dispensed using a Multidrop dispenser (Thermo Scientific). Plates were shaken to ensure mixing and absorbance at 650 nm was monitored using a Perkin Elmer Envision plate reader after 30 min of incubation at room temperature. Data were normalized to percent growth inhibition using positive and negative controls, and analysed using TIBCO Spotfire software. […]
For C[C@H](NC(=O)c1cccc(C(c2ccccc2)N2C(=N)NC(C)(C)CC2=O)c1)c1ccccc1 (single isomer, unassigned) [Compound 27], the IC50 was 14 nM. With C[C@H](NC(=O)c1cccc(C(c2ccccc2)N2C(=N)NC(C)(C)CC2=O)c1)c1ccccc1 (single isomer, unassigned) [Compound 28] the IC50 was > 1000 nM. For CC(C)[C@]1(C)CC(=O)N(C(c2ccccc2)c2cccc(C(=O)N[C@@H](C)c3ccccc3)c2)C(=N)N1 (stereo partly shown) [Compound 1], the IC50 was 3 nM. Work on CC(C)[C@]1(C)CC(=O)N(Cc2cc(F)cc(C(=O)NC(CCN(C)C)c3ccccc3)c2)C(=N)N1 (stereo partly shown) [Compound 34] yielded an IC50 of 310 nM. In the case of CC(C)[C@]1(C)CC(=O)N(C(c2ccccc2)c2cccc(C(=O)N[C@@H](C)c3ccccc3)c2)C(=N)N1 (stereo partly shown) [Compound 55], the IC50 is reported as 3.5 nM. In the case of CC(C)[C@]1(C)CC(=O)N(C(c2ccccc2)c2cccc(C(=O)N[C@@H](C)c3ccccc3)c2)C(=N)N1 (stereo partly shown) [Compound 56], the IC50 is reported as 360 nM.

Same assay, conditions: Plasmodium falciparum, 3D7, Erythrocyte, 72 h, 3D7 strain, parasitized red blood cells, 72 h incubation, LDH activity read by absorbance at 650 nm
Work on CC(C)CC(c1ccc(C(F)(F)F)c(C(=O)N2Cc3nccnc3C2)c1)N1C(=N)N[C@](CC2CC2)(c2ccccc2)CC1=O (stereo partly shown) [Compound 2] yielded an IC50 of 1.3 nM. Compound CC(C)[C@]1(C)CC(=O)N(Cc2ccc(C(=O)N[C@@H](C)c3cccc(F)c3)s2)C(=N)N1 [Compound 3] has an IC50 of 1.37 nM. Work on CC(C)[C@]1(C)CC(=O)N(Cc2cc(F)cc(C(=O)N[C@H]3CCCc4ccccc43)c2)C(=N)N1 [Compound 4] yielded an IC50 of 1.68 nM. COCC[C@H](NC(=O)c1cc(Cl)cc(CN2C(=N)N[C@](C)(C(C)C)CC2=O)c1)c1ccccc1 [Compound 5] showed an IC50 of 2.53 nM. CC(C)[C@]1(C)CC(=O)N(Cc2cc(F)cc(C(=O)N[C@H]3CCc4ccccc43)c2)C(=N)N1 [Compound 6] showed an IC50 of 2.92 nM. N=C1N[C@](CC2CC2)(c2ccccc2)CC(=O)N1Cc1ccc(-c2ccncc2)c(C(=O)N2Cc3nccnc3C2)c1 [Compound 7] gave an IC50 of 3.27 nM. For N=C1N[C@](CC2CC2)(c2ccccc2)CC(=O)N1Cc1ccc(-c2ccccc2)c(C(=O)N2Cc3nccnc3C2)c1 [Compound 8], the IC50 was 3.42 nM. COCC[C@H](NC(=O)c1cc(F)cc(CN2C(=N)NC3(CCCC3)CC2=O)c1)c1ccccc1 [Compound 9] was tested, and the IC50 was 4.19 nM. COCC[C@H](NC(=O)c1cccc(CN2C(=N)N[C@](C)(C(C)C)CC2=O)c1)c1ccccc1 [Compound 10] was tested, and the IC50 was 5.34 nM. COCC[C@H](NC(=O)c1cc(F)cc(CN2C(=N)N[C@](C)(C(C)C)CC2=O)c1)c1ccccc1 [Compound 11] showed an IC50 of 5.67 nM. Work on N=C1N[C@](CC2CC2)(c2ccccc2)CC(=O)N1Cc1ccc(Br)c(C(=O)N2Cc3nccnc3C2)c1 [Compound 12] yielded an IC50 of 6.01 nM. In the case of CC(C)[C@]1(C)CC(=O)N([C@H](C)c2cc(F)cc(C(=O)N[C@@H](C)c3ccccc3)c2)C(=N)N1 [Compound 13], the IC50 is reported as 6.43 nM. Work on COCCC[C@H](NC(=O)c1cc(F)cc(CN2C(=N)N[C@](C)(C(C)C)CC2=O)c1)c1ccccc1 [Compound 14] yielded an IC50 of 6.62 nM. CC(C)[C@]1(C)CC(=O)N(Cc2cccc(N3C[C@@H](c4ccccc4)CC3=O)c2)C(=N)N1 [Compound 15] showed an IC50 of 7.74 nM. CC(C)[C@]1(C)CC(=O)N([C@H](C)c2cccc(N3C[C@@H](c4ccccc4)CC3=O)c2)C(=N)N1 [Compound 16] gave an IC50 of 8.06 nM. COCC[C@H](NC(=O)c1cc(F)cc(CN2C(=N)N[C@](C)(C(C)C)CC2=O)c1)c1ccc(F)cc1 [Compound 17] gave an IC50 of 10.6 nM. CC(C)[C@]1(C)CC(=O)N(Cc2cc(C(=O)N[C@@H](C)c3ccccc3)ccc2F)C(=N)N1 [Compound 18] showed an IC50 of 12.9 nM. CC(C)[C@]1(C)CC(=O)N(Cc2cc(F)cc(C(=O)NC3CCCCCC3)c2)C(=N)N1 [Compound 19] showed an IC50 of 14 nM. CC(C)[C@]1(C)CC(=O)N([C@H](C)c2cccc(N3C[C@H](c4ccccc4)CC3=O)c2)C(=N)N1 [Compound 20] gave an IC50 of 14 nM. For CC(C)[C@]1(C)CC(=O)N([C@H](C)c2cccc(C(=O)N[C@@H](C)c3cccc(Cl)c3)c2)C(=N)N1 [Compound 21], the IC50 was 19.9 nM. Compound N=C1N[C@](CC2CC2)(c2ccccc2)CC(=O)N1Cc1ccc(C(F)(F)F)c(C(=O)N2CCn3c(nnc3C(F)(F)F)C2)c1 [Compound 22] has an IC50 of 27.2 nM. In the case of CC(C)[C@]1(C)CC(=O)N(Cc2cc(F)cc(C(=O)N[C@H](C)c3ccccc3)c2)C(=N)N1 [Compound 23], the IC50 is reported as 33 nM. CC(C)[C@]1(C)CC(=O)N(Cc2cc(F)cc(C(=O)N[C@@H](C)c3ccccc3)c2)C(=N)N1 [Compound 24] showed an IC50 of 48.8 nM. In the case of C[C@@]1(c2c(F)cc(F)cc2F)CC(=O)N(Cc2cccc(C(=O)N3Cc4ccccc4C3)c2)C(=N)N1 [Compound 25], the IC50 is reported as 139 nM. With CC(C)[C@]1(C)CC(=O)N([C@@H](C)c2cccc(N3C[C@H](c4ccccc4)CC3=O)c2)C(=N)N1 [Compound 26] the IC50 was 371 nM. CCC1(CC)CC(=O)N(Cc2cc(F)cc(C(=O)N(C)[C@@H](C)c3ccccc3)c2)C(=N)N1 [Compound 29] showed an IC50 of 870 nM. In the case of CC(C)[C@]1(C)CC(=O)N(Cc2cc(F)cc(C(=O)NC(CCN(C)C)c3ccccc3)c2)C(=N)N1 (stereo partly shown) [Compound 30], the IC50 is reported as 260 nM. CCC1(CC)CC(=O)N(Cc2cc(F)cc(C(=O)N[C@@H](C)c3ccccc3)c2)C(=N)N1 [Compound 31] showed an IC50 of 94 nM. For C[C@H](NC(=O)c1cc(F)cc(CN2C(=N)NC3(CCCC3)CC2=O)c1)c1ccccc1 [Compound 32], the IC50 was 500 nM. For C[C@H](NC(=O)c1cc(F)cc(CN2C(=N)NC3(CCCCC3)CC2=O)c1)c1ccccc1 [Compound 33], the IC50 was 260 nM. Compound CC(C)[C@]1(C)CC(=O)N(Cc2cc(F)cc(C(=O)N3Cc4ccccc4C3)c2)C(=N)N1 [Compound 35] has an IC50 of 390 nM. C[C@H](NC(=O)c1cc(F)cc(CN2C(=N)N[C@@](C)(c3ccccc3)CC2=O)c1)c1ccccc1 [Compound 36] was tested, and the IC50 was 130 nM. C[C@H](NC(=O)c1cc(F)cc(CN2C(=N)NC3(CCC(C)(C)CC3)CC2=O)c1)c1ccccc1 [Compound 37] was tested, and the IC50 was 620 nM. In the case of C[C@H](NC(=O)c1cc(F)cc(CN2C(=N)NC(c3ccccc3)(c3ccccc3)CC2=O)c1)c1ccccc1 [Compound 38], the IC50 is reported as 570 nM. In the case of C[C@H](NC(=O)c1cc(F)cc(CN2C(=N)NC3(CCC3)CC2=O)c1)c1ccccc1 [Compound 39], the IC50 is reported as 1000 nM. Compound CC(C)[C@]1(C)CC(=O)N(Cc2ccc(C(=O)N[C@@H](C)c3ccccc3)cc2)C(=N)N1 [Compound 40] has an IC50 of 630 nM. With CC(C)[C@]1(C)CC(=O)N(Cc2ccc(C(=O)NCc3ccccc3F)cc2)C(=N)N1 [Compound 41] the IC50 was 430 nM. Work on CC(C)[C@]1(C)CC(=O)N(Cc2ccc(C(=O)NCc3cccc(F)c3)cc2)C(=N)N1 [Compound 42] yielded an IC50 of 480 nM. CC(C)[C@]1(C)CC(=O)N(Cc2ccc(C(=O)NCc3ccc(F)cc3)cc2)C(=N)N1 [Compound 43] was tested, and the IC50 was 860 nM. Cc1ccccc1CNC(=O)c1ccc(CN2C(=N)N[C@](C)(C(C)C)CC2=O)cc1 [Compound 44] was tested, and the IC50 was 320 nM. For Cc1cccc(CNC(=O)c2ccc(CN3C(=N)N[C@](C)(C(C)C)CC3=O)cc2)c1 [Compound 45], the IC50 was 810 nM. Compound Cc1ccc(CNC(=O)c2ccc(CN3C(=N)N[C@](C)(C(C)C)CC3=O)cc2)cc1 [Compound 46] has an IC50 of 550 nM. CC(C)[C@]1(C)CC(=O)N(Cc2ccc(C(=O)N3Cc4ccccc4C3)cc2)C(=N)N1 [Compound 47] showed an IC50 of 490 nM. Work on C[C@H](NC(=O)c1cc(F)cc(CN2C(=N)NCC(c3ccccc3)C2=O)c1)c1ccccc1 (stereo partly shown) [Compound 49] yielded an IC50 of 770 nM. CCC1(CC)CC(=O)N(Cc2cc(F)cc(C(=O)N3Cc4ccccc4C3)c2)C(=N)N1 [Compound 50] gave an IC50 of 610 nM. For CC(C)[C@]1(C)CC(=O)N(C(c2ccccc2)c2cccc(C(=O)N3Cc4ccccc4C3)c2)C(=N)N1 (stereo partly shown) [Compound 51], the IC50 was 49 nM. For CC(C)[C@]1(C)CC(=O)N(C(c2ccccc2)c2cccc(C(=O)N3Cc4nccnc4C3)c2)C(=N)N1 (stereo partly shown) [Compound 52], the IC50 was 270 nM. CCC1(CC)CC(=O)N(Cc2cc(F)cc(C(=O)N3Cc4nccnc4C3)c2)C(=N)N1 [Compound 53] gave an IC50 of 870 nM. For CC1(C)CC(=O)N(C(c2ccccc2)c2cccc(C(=O)N3Cc4ccccc4C3)c2)C(=N)N1 (stereo not shown) [Compound 54], the IC50 was 390 nM.
